What was measured:
[1] = test system: human colon carcinoma HT-29; assay: Proliferation assay (IC50) under aerobic and hypoxic conditions, HT-29; type: cell-based; settings: for RHT: HT-29, ratio Tirapazamine/test compound under hypoxic conditions; for HCR: HT-29, ratio of IC50 under aerobic and hypoxic conditions; for IC50: Homo sapiens, HT-29, hypoxic (anoxia <0.001% O2), 4 h exposure
Protocol: (§1) Evaluation of the Cytotoxicity of Compounds by Proliferation Assay (IC50) Under Aerobic and Hypoxic Conditions.
(§2) Compounds representative of the invention were evaluated under both aerobic and hypoxic conditions in a proliferation assay (IC50), using two cell lines: human colon carcinoma HT-29, and human cervical carcinoma SiHa.
(§3) Drug exposures were performed in 96-well plates (Nunc) using either a 37° C. humidified incubator (20% O2, 5% CO2) or in the incubator compartment (37° C.) of an anaerobic chamber (Shell Lab) where palladium catalyst scrubbed gas (90% N2, 5% H2, 5% CO2) ensures severe anoxia (<0.001% O2). For each experiment, compounds were simultaneously tested under both oxic and hypoxic conditions against the HT-29 cell line and included TPZ as an independent internal control at the front and back of the assay (n=2). Final data was pooled from a series of seven independent experiments and is calculated using inter-experimental means. In all cases, 8-methyl-5-nitroquinoline was used as a second internal control to confirm that strict hypoxia was present during the experiment. (Siim et al. Br. J. Cancer 1994, 70, 596-603). Cell cultures were grown in αMEM (Gibco) containing 5% heat inactivated FCS and maintained in exponential growth phase. For each individual experiment an appropriate number of cells were seeded (HT-29=1000) into wells in αMEM÷10% FCS+10 mM added glucose+100 μM 2′-deoxycytidine (2′dCyd), and allowed to attach for 3 h. High glucose (final concentration 17 mM) and the presence of 2′-dCyd minimize hypoxia-induced cell cycle arrest. Replicates were then exposed to BTOs, using 2-fold serial dilutions in triplicate, for a further 4 h. Subsequently cells were washed free of compound using complete media (without glucose/2′-dCyd) and allowed to grow for 5 (oxic) or 6 (anoxic) days. Plates were stained as described previously (Wilson et al., J. Med. Chem. 1989, 32, 31-38) and IC50 values determined.
(§4) IC50=The concentration of drug (in micromolar) to reduce viable cell numbers to 50% of those of control cell cultures grown under the same conditions but not exposed to drug
(§5) RHT=Relative hypoxic toxicity is defined as the ratio of concentrations of Tirapazamine/test compound to give equal cell killing under hypoxic conditions.
(§6) HCR=Hypoxic cytotoxicity ratio is defined as the ratio of drug concentrations under aerobic and hypoxic condition to produce equal cell survival (50%) determined by proliferation assay

[2] = test system: human cervical carcinoma SiHa; assay: Proliferation assay (IC50) under aerobic and hypoxic conditions, SiHa; type: cell-based; settings: for IC50: Homo sapiens, hypoxic, 4 h exposure; for RHT: ratio Tirapazamine/test compound under hypoxic conditions; for HCR: ratio of IC50 under aerobic and hypoxic conditions
Protocol: as §1, §2, §3, §4, §5, §6

[3] = test system: human lung adenocarcinoma LXFL; assay: Clonogenic assay under aerobic and hypoxic conditions, LXFL; type: cell-based; settings: LXFL cells
Protocol: (§7) Evaluation of the Cytotoxicity of Compounds by Clonogenic Assay Under Aerobic and Hypoxic Conditions.
(§8) Compounds representative of the invention were evaluated under both aerobic and hypoxic conditions in clonogenic assays, using three cell lines: human colon carcinoma HT-29, murine SCCVII, and human lung adenocarcinoma LXFL. Clonogenic survival was determined using aerobic and hypoxic SCCVII cell suspensions. Drug exposures were performed using continuously stirred and gassed single cell suspensions (10^6 cells/mL) at 37° C., equilibrated with 5% CO2 in air or N2 for 60 min before drug addition. After a 60 min drug exposure cells were washed by centrifugation and plated to determine colony formation Cytotoxicity was measured as the concentration required to reduce plating efficiency to 10% of controls (C10). The hypoxic cytotoxicity ratio (HCR) was determined as the ratio of the C10 values under aerobic and hypoxic conditions. The relative hypoxic toxicity (RHT) was determined as the ratio of hypoxic TPZ C10 to hypoxic BTO C10. Abbreviations used in Table 2 are:
(§9) C10=The concentration of drug (in micromolar) to reduce viable cell numbers to 10% of those of control cell cultures grown under the same conditions but not exposed to drug
as §5
(§10) HCR=Hypoxic cytotoxicity ratio is defined as the ratio of drug concentrations under aerobic and hypoxic condition to produce equal cell survival (10%) determined by clonogenic assay

murine SCCVII = assay: Clonogenic assay under aerobic and hypoxic conditions, SCCVII; type: cell-based; settings: SCVIII cells; for IC90: Mus musculus, 1 h, hypoxic, 60 min drug exposure, SN (hypoxic), read-out: C10 hypoxic; for HCR: ratio of C10 under aerobic and hypoxic conditions; for RHT: ratio of hypoxic TPZ C10 to hypoxic compound C10
Protocol: as §7, §8, §9, §5, §10

Row | melting point | IC50 [1] | IC50 [2] | IC90 (murine SCCVII) | SMILES | RHT [1] | HCR [1] | RHT [2] | HCR [2] | C10 hypoxic ([3]; hypoxic, 60 min drug exposure) | HCR ([3]; ratio of C10 under aerobic and hypoxic conditions) | RHT ([3]; ratio of hypoxic TPZ C10 to hypoxic compound C10) | HCR (murine SCCVII) | RHT (murine SCCVII)
1 | 178 to 180 °C | 0.225 µM | 0.105 µM | – | Cc1ccc2c(c1)[n+]([O-])c(NCCCN(C)CCCNC(=O)c1cccc3ccc(-c4ccncc4)nc13)n[n+]2[O-] [Compound 86, N-[3-(Methyl{3-[(6-methyl-1,4-dioxido-1,2,4-benzotriazin-3-yl)amino]propyl}amino)propyl]-2-(4-pyridinyl)-8-quinolinecarboxamide] | 66 | 168 | 35 | 136 | – | – | – | – | –
2 | 163 to 169 °C | 0.356 µM | – | – | Cl.O=C(NCCCNCCCNc1n[n+]([O-])c2ccccc2[n+]1[O-])c1cccc2nc3ccccc3nc12 [Compound 31, N-[3-({3-[(1,4-dioxido-1,2,4-benzotriazin-3-yl)amino]propyl}amino)propyl]-1-phenazinecarboxamide hydrochloride] | 163 | 5.3 | – | – | – | – | – | – | –
3 | 160 to 165 °C | 0.49 µM | 0.16 µM | – | O=C(NCCNCCNc1n[n+]([O-])c2ccccc2[n+]1[O-])c1cccc2ccc(-c3ccncc3)nc12 [Compound 102, N-[2-({2-[(1,4-Dioxido-1,2,4-benzotriazin-3-yl)amino]ethyl}amino)ethyl]-2-(4-pyridinyl)-8-quinolinecarboxamide] | 12 | 54 | 23 | 53 | – | – | – | – | –
4 | 203 to 207 °C | – | – | – | O=C(NCCOCCNc1n[n+]([O-])c2ccccc2[n+]1[O-])c1cccc2[nH]c(-c3ccccc3)nc12 [Compound 25, N-(2-{2-[(1,4-Dioxido-1,2,4-benzotriazin-3-yl)amino]ethoxy}ethyl)-2-phenyl-1H-benzimidazole-4-carboxamide] | – | – | – | – | – | – | – | – | –
5 | 138 to 142 °C | 0.018 µM | – | 0.31 µM | Cc1cccc2nc3c(C(=O)NCCCN(C)CCCNc4n[n+]([O-])c5ccccc5[n+]4[O-])cccc3nc12 [Compound 45, N-{3-[{3-[(1,4-Dioxido-1,2,4-benzotriazin-3-yl)amino]propyl}(methyl)amino]-propyl}-9-methyl-4-phenazinecarboxamide] | 321 | 31 | – | – | – | – | – | 23.9 | 29
6 | 166 to 168 °C | 0.13 µM | – | – | Cc1ccc2c(c1)[n+]([O-])nc(NCCCN(C)CCCNC(=O)c1cccc3cc4ccccc4nc13)[n+]2[O-] [Compound 74, N-[3-(Methyl{3-[(7-methyl-1,4-dioxido-1,2,4-benzotriazin-3-yl)amino]propyl}amino)propyl]-4-acridinecarboxamide] | 44.7 | 95 | – | – | – | – | – | – | –
7 | 130 to 135 °C | 0.19 µM | 0.1 µM | 2.3 µM | CN(CCNC(=O)c1cccc2ccc(-c3ccncc3)nc12)CCNc1n[n+]([O-])c2ccccc2[n+]1[O-] [Compound 96, N-{2-[{2-[(1,4-Dioxido-1,2,4-benzotriazin-3-yl)amino]ethyl}(methyl)amino]ethyl}-2-(4-pyridinyl)-8-quinolinecarboxamide] | 31 | 77 | 37 | 78 | – | – | – | 65 | 3.9
8 | 80 to 83 °C | – | – | – | Cc1ccc2c(c1)[n+]([O-])c(NCCCNCCCNC(=O)c1cccc3nc4cccc(C)c4nc13)n[n+]2[O-] [Compound 88, 9-Methyl-N-[3-({3-[(6-methyl-1,4-dioxido-1,2,4-benzotriazin-3-yl)amino]propyl}amino)propyl]-1-phenazinecarboxamide] | – | – | – | – | – | – | – | – | –

Second part, the molecule before the results:

Row | SMILES | melting point | IC50 [1] | IC50 [2] | IC90 (murine SCCVII) | RHT [1] | HCR [1] | RHT [2] | HCR [2] | C10 hypoxic ([3]; hypoxic, 60 min drug exposure) | HCR ([3]; ratio of C10 under aerobic and hypoxic conditions) | RHT ([3]; ratio of hypoxic TPZ C10 to hypoxic compound C10) | HCR (murine SCCVII) | RHT (murine SCCVII)
9 | Cc1cccc2cc3cccc(C(=O)NCCNCCNc4n[n+]([O-])c5ccccc5[n+]4[O-])c3nc12 [Compound 103, N-[2-({2-[(1,4-Dioxido-1,2,4-benzotriazin-3-yl)amino]ethyl}amino)ethyl]-5-methyl-4-acridinecarboxamide] | 135 to 140 °C | 0.035 µM | 0.01 µM | – | 357 | 83 | 309 | 118 | – | – | – | – | –
10 | Cc1cccc2nc3cccc(C(=O)NCCN(C)CCNc4n[n+]([O-])c5ccccc5[n+]4[O-])c3nc12 [Compound 98, N-{2-[{2-[(1,4-Dioxido-1,2,4-benzotriazin-3-yl)amino]ethyl}(methyl)amino]ethyl}-9-methyl-1-phenazinecarboxamide] | 161 to 163 °C | 0.135 µM | 0.075 µM | – | 114 | 45 | 63 | 30 | – | – | – | – | –
11 | CN(CCCNC(=O)c1cccc2cc3ccccc3nc12)CCCNc1n[n+]([O-])c2ccccc2[n+]1[O-] [Compound 41, N-{3-[{3-[(1,4-Dioxido-1,2,4-benzotriazin-3-yl)amino]propyl}(methyl)amino]propyl}-4-acridinecarboxamide] | – | 0.043 µM | – | 0.8 µM | 134 | 154 | – | – | 0.4 µM | 50 | 37.5 | 52.5 | 12.5
12 | Cc1cccc2cc3cccc(C(=O)NCCN(C)CCNc4n[n+]([O-])c5ccccc5[n+]4[O-])c3nc12 [Compound 99, N-{2-[{2-[(1,4-Dioxido-1,2,4-benzotriazin-3-yl)amino]ethyl}(methyl)amino]ethyl}-5-methyl-4-acridinecarboxamide] | 148 to 152 °C | 0.41 µM | – | 0.29 µM | 14 | 25 | – | – | – | – | – | 176 | 17.2
13 | O=C(CCNc1ccnc2cc(Cl)ccc12)NCCCNc1n[n+]([O-])c2ccccc2[n+]1[O-] [Compound 65, 3-[(7-Chloro-4-quinolinyl)amino]-N-{3-[(1,4-dioxido-1,2,4-benzotriazin-3-yl)amino]propyl}propanamide] | 202 °C (dec.) | – | – | – | – | – | – | – | – | – | – | – | –
14 | CN(C)CCCC(=O)c1cc(NC(=O)c2cc(NC(=O)CCCNc3n[n+]([O-])c4ccccc4[n+]3[O-])cn2C)cn1C [Compound 112, N-{5-[4-(Dimethylamino)butanoyl]-1-methyl-1H-pyrrol-3-yl}-4-({4-[(1,4-dioxido-1,2,4-benzotriazin-3-yl)amino]butanoyl}amino)-1-methyl-1H-pyrrole-2-carboxamide] | 140 to 145 °C | – | – | – | – | – | – | – | – | – | – | – | –
15 | Cc1ccc2c(c1)[n+]([O-])nc(NCCCN(C)CCCNC(=O)c1cccc3ccc(-c4ccncc4)nc13)[n+]2[O-] [Compound 75, N-[3-(Methyl{3-[(7-methyl-1,4-dioxido-1,2,4-benzotriazin-3-yl)amino]propyl}amino)propyl]-2-(4-pyridinyl)-8-quinolinecarboxamide] | 178 to 180 °C | 0.2 µM | 0.07 µM | – | 29 | 92 | 53 | 110 | – | – | – | – | –
